The source of these data is patent US20050256182A1, “Formulations of anti-pain agents and methods of using the same” (priority 2004, published 2005).

A short description of the series: Crossover PK study: sumatriptan plasma levels (LC/MS/MS) after ID, junctional or SC administration; Tmax, Cmax, AUC, relative F. The class given is in vivo. The settings on record: Yucatan miniswine, mean; for AUC 0-10 min: Yucatan, minipig, plasma, AUC 10 min.
Setting [1] is: 3 × 3 mm × 34 g, 12 mg/ml, 5 minutes metered bolus.
Where [2] appears, read: SC, 12 mg/ml (reference condition).

Experimental: Percent (%) relative Bioavailability (F) for each dosing condition was calculated compared to the SC condition: [formula]

Consider `CNS(=O)(=O)Cc1ccc2[nH]cc(CCN(C)C)c2c1` [sumatriptan, 3-[2-(dimethylamino)ethyl]-N-methyl-indole-5-methanesulfonamide], for which the C max amounted to 849.333 ng/mL (1 × 2 mm × 30 g, 30 mg/ml); 836.667 ng/mL (1 × 3 mm × 30 g, 30 mg/ml); 705.833 ng/mL under setting [1]. Also, under setting [2], the “rel. F 10 min” value stood at 100.000%. Besides, under setting [2], the “rel. F Total” value is 100.000%. Besides, the AUC 0-10 min is, setting by setting: (1 × 1.5 mm × 30 g, 0 mg/ml) 84.7 ng·h/mL; (1 × 2 mm × 30 g, 30 mg/ml) 75.2 ng·h/mL; (1 × 3 mm × 30 g, 30 mg/ml) 86.4 ng·h/mL; (3 × 2 mm × 34 g, 30 mg/ml) 69.5 ng·h/mL; under setting [1], 52.8 ng·h/mL; (3 × 3 mm × 34 g, 30 mg/ml, 2 minute metered bolus) 53.4 ng·h/mL. The AUC 0-10 min by setting is: (iv, 12 mg/ml) 59.8 ng·h/mL; (sc, 12 mg/ml) 45.3 ng·h/mL.
